Where “and” joins values, the source holds several entries; their conditions need not be identical. Equal entries are not always repeated. Inconclusive results and toxic doses are left out. No stated cut-off is given here; in the data, active means T/C of 150% or more; inactive means T/C below 125%.
System: L1210 leukemia ip in BDF1 mice, survival T/C
Assay: NCI In Vivo Anticancer Drug Screen. Data for tumor model L1210 Leukemia (intraperitoneal) in B6D2F1 (BDF1) mice
Conditions: endpoint: mean survival time, higher = longer survival
How it was run: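 Transplantable tumor model; survival measured in treated vs vehicle control mice. Value = treated/control.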

[1] = dose: 100.0 mg/kg/injection, schedule: Q04DX002 (ip), vehicle: Klucel (hydroxypropylcellulose) (HPC)
[2] = dose: 200.0 mg/kg/injection, schedule: Q04DX002 (ip), vehicle: Klucel (hydroxypropylcellulose) (HPC)
[3] = dose: 400.0 mg/kg/injection, schedule: Q04DX002 (ip), vehicle: Klucel (hydroxypropylcellulose) (HPC)
[4] = dose: 200.0 mg/kg/injection, schedule: Q04DX003 (ip), vehicle: saline with Tween-80
[5] = dose: 100.0 mg/kg/injection, schedule: Q01DX001 (ip), vehicle: carboxymethylcellulose (CMC)
[6] = dose: 200.0 mg/kg/injection, schedule: Q01DX001 (ip), vehicle: carboxymethylcellulose (CMC)
[7] = dose: 100.0 mg/kg/injection, schedule: Q01DX009 (ip), vehicle: Klucel (hydroxypropylcellulose) (HPC)
[8] = dose: 200.0 mg/kg/injection, schedule: Q01DX009 (ip), vehicle: Klucel (hydroxypropylcellulose) (HPC)
[9] = dose: 400.0 mg/kg/injection, schedule: Q01DX001 (ip), vehicle: carboxymethylcellulose (CMC)

Measured: T/C

COc1cccc2c1C(=O)c1c(O)c3c(c(O)c1C2=O)CC(O)(C(C)=O)CC3O (stereo not drawn)
inactive: dose: 0.16 mg/kg/injection, schedule: Q01DX009 (ip), vehicle: saline with Tween-80 103 % of control | dose: 0.16 mg/kg/injection, schedule: Q03HX008 (ip), vehicle: saline with Tween-80 100 % of control | dose: 0.32 mg/kg/injection, schedule: Q01DX009 (ip), vehicle: saline with Tween-80 90 % of control | dose: 0.32 mg/kg/injection, schedule: Q03HX008 (ip), vehicle: saline with Tween-80 97 % of control | dose: 0.63 mg/kg/injection, schedule: Q01DX009 (ip), vehicle: saline with Tween-80 99 % of control | dose: 0.63 mg/kg/injection, schedule: Q03HX008 (ip), vehicle: saline with Tween-80 100 % of control | dose: 1.25 mg/kg/injection, schedule: Q01DX009 (ip), vehicle: saline with Tween-80 94 % of control | dose: 1.25 mg/kg/injection, schedule: Q03HX008 (ip), vehicle: saline with Tween-80 95 % of control | dose: 2.5 mg/kg/injection, schedule: Q01DX009 (ip), vehicle: saline with Tween-80 91 % of control | dose: 2.5 mg/kg/injection, schedule: Q03HX008 (ip), vehicle: saline with Tween-80 95 % of control | dose: 5.0 mg/kg/injection, schedule: Q01DX001 (ip), vehicle: saline 102 % of control | dose: 5.0 mg/kg/injection, schedule: Q01DX009 (ip), vehicle: saline with Tween-80 101 % of control | dose: 5.0 mg/kg/injection, schedule: Q03HX008 (ip), vehicle: saline with Tween-80 97 % of control | dose: 10.0 mg/kg/injection, schedule: Q01DX001 (ip), vehicle: saline 94 % of control | dose: 10.0 mg/kg/injection, schedule: Q01DX009 (ip), vehicle: saline with Tween-80 100 % of control | dose: 10.0 mg/kg/injection, schedule: Q03HX008 (ip), vehicle: saline with Tween-80 90 % of control | dose: 20.0 mg/kg/injection, schedule: Q01DX001 (ip), vehicle: saline with Tween-80 100 % of control | dose: 20.0 mg/kg/injection, schedule: Q01DX001 (ip), vehicle: saline 105 % of control | dose: 20.0 mg/kg/injection, schedule: Q04DX003 (ip), vehicle: saline with Tween-80 96 % of control | dose: 40.0 mg/kg/injection, schedule: Q01DX001 (ip), vehicle: saline with Tween-80 100 % of control | dose: 40.0 mg/kg/injection, schedule: Q01DX001 (ip), vehicle: saline 105 % of control | dose: 40.0 mg/kg/injection, schedule: Q04DX003 (ip), vehicle: saline with Tween-80 103 % of control | dose: 80.0 mg/kg/injection, schedule: Q01DX001 (ip), vehicle: saline with Tween-80 102 % of control | dose: 80.0 mg/kg/injection, schedule: Q04DX003 (ip), vehicle: saline with Tween-80 102 % of control | dose: 160.0 mg/kg/injection, schedule: Q01DX001 (ip), vehicle: saline with Tween-80 105 % of control | dose: 160.0 mg/kg/injection, schedule: Q04DX003 (ip), vehicle: saline with Tween-80 103 % of control

COC(=O)C1(C)CCCC2(C)C1CCC13CCC(C)(CCC21)C3O (stereo not drawn)
inactive: [1] 103 % of control | [2] 92 % of control | [3] 92 % of control

CC(N)C(O)C(Cl)(Cl)Cl (stereo not drawn)
inactive: dose: 100.0 mg/kg/injection, schedule: Q04DX003 (ip), vehicle: saline with Tween-80 92 % of control | [4] 92 % of control | dose: 400.0 mg/kg/injection, schedule: Q04DX003 (ip), vehicle: saline with Tween-80 90 % of control

CN1C(c2ccco2)NC(=O)C12CCN(Cc1ccccc1)CC2 (stereo not drawn)
inactive: [5] 101 % of control | [6] 93 % of control

[N-]=[N+]=NC(c1ccccc1)(c1ccccc1)c1ccccc1
inactive: dose: 100.0 mg/kg/injection, schedule: Q04DX002 (ip), vehicle: saline with Tween-80 97 % of control | dose: 200.0 mg/kg/injection, schedule: Q04DX002 (ip), vehicle: saline with Tween-80 97 % of control | dose: 400.0 mg/kg/injection, schedule: Q04DX002 (ip), vehicle: saline with Tween-80 97 % of control

CCCCCCCCCCCCCCCCCCNC(=O)Nc1ccc(C)c(Cl)c1
inactive: [1] 90 % of control | [2] 93 % of control

CCOC(=O)C(CCC(=O)O)NC(=O)OCc1ccccc1 (stereo not drawn)
inactive: dose: 50.0 mg/kg/injection, schedule: Q04DX003 (ip), vehicle: Klucel (hydroxypropylcellulose) (HPC) 94 % of control | [7] 101 % of control | dose: 100.0 mg/kg/injection, schedule: Q04DX003 (ip), vehicle: Klucel (hydroxypropylcellulose) (HPC) 94 % of control and 100 % of control | [8] 106 % of control | dose: 200.0 mg/kg/injection, schedule: Q04DX003 (ip), vehicle: Klucel (hydroxypropylcellulose) (HPC) 93 % of control

NNC(=O)c1c(C(N)=O)n[nH]c1C1OC(COCc2ccccc2)C(OCc2ccccc2)C1OCc1ccccc1 (stereo not drawn)
inactive: dose: 100.0 mg/kg/injection, schedule: Q01DX005 (ip), vehicle: saline 97 % of control and 93 % of control | dose: 200.0 mg/kg/injection, schedule: Q01DX005 (ip), vehicle: saline 100 % of control and 101 % of control

Cc1ccc(S(=O)(=O)N(Cc2ccccc2[N+](=O)[O-])c2ccccc2)cc1
inactive: [5] 103 % of control | [6] 100 % of control | [9] 103 % of control

O=C(Nc1cc(C(F)(F)F)ccc1Cl)c1cccc(C(=O)Nc2cc(C(F)(F)F)ccc2Cl)c1
inactive: dose: 12.5 mg/kg/injection, schedule: Q04DX003 (ip), vehicle: saline with Tween-80 93 % of control | dose: 25.0 mg/kg/injection, schedule: Q04DX003 (ip), vehicle: saline with Tween-80 96 % of control | dose: 50.0 mg/kg/injection, schedule: Q04DX003 (ip), vehicle: saline with Tween-80 95 % of control | [4] 87 % of control

Cc1ccc(C=C2c3ccccc3-c3ccccc32)cc1
inactive: dose: 12.5 mg/kg/injection, schedule: Q04DX002 (ip), vehicle: gum acacia 120 % of control | dose: 25.0 mg/kg/injection, schedule: Q04DX002 (ip), vehicle: gum acacia 88 % of control | dose: 50.0 mg/kg/injection, schedule: Q04DX002 (ip), vehicle: gum acacia 98 % of control

Cc1ccc(C(=O)c2cccc([N+](=O)[O-])c2)cc1
inactive: [7] 104 % of control | [8] 103 % of control | dose: 400.0 mg/kg/injection, schedule: Q01DX009 (ip), vehicle: Klucel (hydroxypropylcellulose) (HPC) 98 % of control

COc1cc2c(cc1O)CCN(C)C2Cc1ccc(OC)c(OC)c1 (stereo not drawn)
inactive: dose: 75.0 mg/kg/injection, schedule: Q01DX001 (ip), vehicle: carboxymethylcellulose (CMC) 95 % of control | dose: 150.0 mg/kg/injection, schedule: Q01DX001 (ip), vehicle: carboxymethylcellulose (CMC) 94 % of control

Cc1cc(N(CCCOS(C)(=O)=O)CCCOS(C)(=O)=O)ccc1C=Nc1ccc(-c2nc(Cc3ccccc3)sc2C)cc1
inactive: dose: 100.0 mg/kg/injection, schedule: Q01DX009 (ip), vehicle: saline with Tween-80 96 % of control | dose: 200.0 mg/kg/injection, schedule: Q01DX009 (ip), vehicle: saline with Tween-80 98 % of control

Cc1ccc(NC(=O)Nc2ccc(Cl)cc2)c(C)c1
inactive: [5] 101 % of control | [6] 106 % of control | [9] 98 % of control

CC(C)OC(=O)Nc1cccc(C(F)(F)F)c1
inactive: [1] 103 % of control | [2] 88 % of control | [3] 106 % of control

CC(=O)OCCC#N
inactive: dose: 50.0 mg/kg/injection, schedule: Q01DX001 (ip), vehicle: carboxymethylcellulose (CMC) 95 % of control | [5] 95 % of control | [6] 106 % of control | [9] 95 % of control
